Values quoted from earlier work as cited in article PMC11768433 (Viruses, 2024).

Tests used:
P4 cells = tested on: P4 cells; set-up: method as in Ref.12054767; details: MTT assay, peptide concentrations higher than 100 μM, ref Ref.12054767
Vero cells = tested on: Vero cells; set-up: method as in Ref.35216177; details: ref Ref.35216177
HCoV-229E = tested on: HCoV-229E; set-up: method as in Ref.35216177; details: HCoV-229E replication, Vero cells; ref Ref.35216177
SARS-CoV-2 = tested on: SARS-CoV-2; set-up: method as in Ref.35216177; details: SARS-CoV-2 replication, Vero cells; ref Ref.35216177
HSV-1 = tested on: HSV-1; set-up: method as in Ref.35216177; details: HSV-1 replication, Vero cells; ref Ref.35216177
HSV-2 = tested on: HSV-2; set-up: method as in Ref.35216177; details: HSV-2 replication, Vero cells; ref Ref.35216177
HCoV-OC43 = tested on: HCoV-OC43; set-up: method as in Ref.35216177; details: HCoV-OC43 replication, Vero cells; ref Ref.35216177
P4-CCR5 cells = tested on: P4-CCR5 cells; set-up: method as in Ref.17448989; details: up to 1000 µM, ref Ref.17448989

In the case of “LSELDDRADALQAGASQFETSAAKLKRKYWWKN [DRAVPe00111, DRAVP database peptide, target HIV-1 integrase]”, the “decrease of cell viability” value (P4 cells) is given as about 5%.
For “YQALIRMIYKNI [DRAVPe00097, DRAVP database peptide, target HIV-1 integrase]”, the “decrease of cell viability” value (P4 cells) is listed as about 5%.
In the case of “FVPWFSKFlwRIL [DRAVPe00386, DRAVP database entry, TL peptide]”, the CC50 (Vero cells) is listed as 24.12 µM, the IC90 (HCoV-229E) is listed as 50 µM and the IC90 (SARS-CoV-2) is listed as 14.8 µM. For the same substance, the IC90 (HSV-1) was 7.89 µM, the IC90 (HSV-2) was 9.76 µM and the IC90 (HCoV-OC43) was 17.4 µM.
For LEAIPMGIPpEVXFNKPFVF [DRAVPe00228], the “cytotoxicity” value (P4-CCR5 cells) is listed as “[Ref.17448989]No cytotoxicity against P4-CCR5 cells up tp 1000 µM”.
In the case of “YQLLIRMIYANI [DRAVPe00104, DRAVP database peptide, target HIV-1 integrase]”, the “decrease of cell viability” value (P4 cells) is listed as about 5%.
For “FVPWFSKFlGRIL [DRAVPe00377, DRAVP database entry, TL peptide]”, the CC50 (Vero cells) is given as 42.18 µM, the IC90 (HCoV-229E) is given as 30.1 µM and the IC90 (SARS-CoV-2) is given as 12.1 µM. The IC90 (HSV-1) was 18.7 µM, the IC90 (HSV-2) was 16.7 µM and the IC90 (HCoV-OC43) was 15 µM.
For “FVPWFSKFlxRIL [DRAVPe00382, DRAVP database entry, TL peptide]”, the CC50 (Vero cells) is given as 32.16 µM, the IC90 (HCoV-229E) is given as over 50 µM and the IC90 (SARS-CoV-2) is given as 17.4 µM. The IC90 (HSV-1) was 12.8 µM, the IC90 (HSV-2) was 11.9 µM and the IC90 (HCoV-OC43) was 24.7 µM.
For “FVQWFSKFLGRIL [DRAVPe00376, DRAVP database entry, TL peptide]”, the CC50 (Vero cells) is listed as 19.61 µM, the IC90 (HSV-1) is listed as 15.7 µM and the IC90 (HSV-2) is listed as 16 µM.
In the case of LEAIPMSIPPEFLFGKPFVF [DRAVPe00223], the “cytotoxicity” value (P4-CCR5 cells) is given as “[Ref.17448989]No cytotoxicity against P4-CCR5 cells up tp 1000 µM”.
In the case of LEAIPMSIPPEVKFNKPFVF [DRAVPe00192], the “cytotoxicity” value (P4-CCR5 cells) is listed as “[Ref.17448989]No cytotoxicity against P4-CCR5 cells up tp 1000 µM”.
For LEAIPCSIPPCFAFNKPFVF [DRAVPe00222], the “cytotoxicity” value (P4-CCR5 cells) is listed as “[Ref.17448989]No cytotoxicity against P4-CCR5 cells up tp 1000 µM”.
For “FVPWFSKFlWRIL [DRAVPe00385, DRAVP database entry, TL peptide]”, the CC50 (Vero cells) is listed as 35.47 µM, the IC90 (HCoV-229E) is listed as 50 µM and the IC90 (SARS-CoV-2) is listed as 27.7 µM. For the same substance, the IC90 (HSV-1) was 8.25 µM, the IC90 (HSV-2) was 12.5 µM and the IC90 (HCoV-OC43) was 24.2 µM.
In the case of “FVPWFSKFlPRIL [DRAVPe00378, DRAVP database entry, TL peptide]”, the CC50 (Vero cells) is given as 56.52 µM, the IC90 (SARS-CoV-2) is given as 14 µM and the IC90 (HSV-1) is given as 18.8 µM. For the same substance, the IC90 (HSV-2) was 19.2 µM and the IC90 (HCoV-OC43) was 24.1 µM.
For “FVPWFSKFlpRIL [DRAVPe00379, DRAVP database entry, TL peptide]”, the CC50 (Vero cells) is listed as “[Ref.35216177]Vero cells:CC50>100 μM”.
In the case of LEAIPCSIPPCVFFNKPFVF [DRAVPe00221], the “cytotoxicity” value (P4-CCR5 cells) is given as “[Ref.17448989]No cytotoxicity against P4-CCR5 cells up tp 1000 µM”.
For “FVPWFSKFlXRIL [DRAVPe00380, DRAVP database entry, TL peptide]”, the CC50 (Vero cells) is given as 60.90 µM, the IC90 (HCoV-229E) is given as over 50 µM and the IC90 (SARS-CoV-2) is given as 25 µM. For the same substance, the IC90 (HSV-1) was 15.9 µM, the IC90 (HSV-2) was 19 µM and the IC90 (HCoV-OC43) was 27.7 µM.
In the case of “QLLIRMIYKNILFYLVPGPGHGAEPERRNIKYL [DRAVPe00090, DRAVP database peptide, target HIV-1 integrase]”, the “decrease of cell viability” value (P4 cells) is given as about 5%.
In the case of “LFYLVPGPGH [DRAVPe00094, DRAVP database peptide, target HIV-1 integrase]”, the “decrease of cell viability” value (P4 cells) is given as about 5%.
For KVINPEPIVEPFMSKPFALF [DRAVPe00230], the “cytotoxicity” value (P4-CCR5 cells) is given as “[Ref.17448989]No cytotoxicity against P4-CCR5 cells up tp 1000 µM”.
For “QLLIRMIYKNI [DRAVPe00109, DRAVP database peptide, target HIV-1 integrase]”, the “decrease of cell viability” value (P4 cells) is listed as about 5%.
In the case of LEAIPCSIPpCFLFNKPFVF [DRAVPe00227], the “cytotoxicity” value (P4-CCR5 cells) is given as “[Ref.17448989]No cytotoxicity against P4-CCR5 cells up tp 1000 µM”.
For “YQLAIRMIYKNI [DRAVPe00098, DRAVP database peptide, target HIV-1 integrase]”, the “decrease of cell viability” value (P4 cells) is listed as about 5%.
For “YQLLIRPIYKNI [DRAVPe00110, DRAVP database peptide, target HIV-1 integrase]”, the “decrease of cell viability” value (P4 cells) is given as about 5%.
